Experimental data reported in ChEMBL document CHEMBL1944508, “Identification of triazolopyridazinones as potent p38α inhibitors” (Bioorg Med Chem Lett, 2012).

Assays:
Format in all cases: ADME, organism-based
[1] = Clearance in rat; settings: in vivo
[2] = Clearance in Sprague-Dawley rat at 2 mg/kg, iv; design: dose 2 mg/kg, route intravenous; settings: in vivo
[3] = Volume of distribution at steady state in Sprague-Dawley rat at 2 mg/kg, iv; design: dose 2 mg/kg, route intravenous; settings: in vivo, read-out: Vdss
[4] = Half life in Sprague-Dawley rat at 2 mg/kg, iv; design: dose 2 mg/kg, route intravenous; settings: in vivo
[5] = AUC (0 to infinity) in Sprague-Dawley rat at 2 mg/kg, po; design: time infinity, dose 2 mg/kg, route oral; settings: plasma
[6] = Oral bioavailability in Sprague-Dawley rat at 2 mg/kg; settings: in vivo

Row | clearance [1] | clearance [2] | Vd [3] | half-life [4] | AUC(0-inf) [5] | bioavailability [6] | SMILES
1 | 6.17 mL/min/kg |  |  |  |  |  | Cc1ccc(C(=O)NC2CC2)cc1-c1ccn2c(-c3c(F)cccc3F)nnc2c1
2 |  | 11.4 mL/min/kg | 2.7 L/kg | 2.76 h | 1370 ng·h/mL | 42% | CCn1c(=O)c(-c2cc(C(=O)NC3CC3)cc(F)c2C)cc2nnc(-c3c(F)cccc3Cl)n21
3 |  | 8.77 mL/min/kg | 2.42 L/kg | 3.4 h | 3190 ng·h/mL | 83% | Cc1c(F)cc(C(=O)NC2CC2)cc1-c1cc2nnc(-c3c(F)cccc3Cl)n2n(C)c1=O
4 | 3.67 mL/min/kg |  |  |  |  |  | Cc1ccc(C(=O)NC2CC2)cc1-c1cc2cnn(-c3c(F)cccc3F)c2n(C)c1=O
5 |  | 13.1 mL/min/kg | 2.54 L/kg | 2.76 h | 1420 ng·h/mL | 55% | CCn1c(=O)c(-c2cc(C(=O)NC3CC3)ccc2C)cc2nnc(-c3c(F)cccc3Cl)n21
